The values that follow come from paper PMC3401593 (Journal of Pharmaceutical Sciences, 2009).

By Papp is commonly meant the rate of passage across a membrane or cell layer, normalised by area and donor concentration. A high value points to fast passage. In general, Papp B→A refers to how fast a substance crosses the layer from the basolateral side.

Marks after values point to notes of the source that are not given here.

A short description of one data set: in vitro. The following applies: human, Caco-2.
The test system of data set [1] is mdr1a/b (+/+) and mdr1a/b (−/−) mice. The following applies: mouse, in vivo.
For data set [2] the following is noted: mouse, in vivo, sc.
A further data set relates to P-gp. Description: in vitro. As to conditions: human, Caco-2, Papp B–A.

`OC[C@@H](O)[C@@H](O)[C@H](O)[C@H](O)CO` [mannitol] registered an apparent permeability (Papp) at 0.2 μCi/mL in “in vitro” of 5.21 ×10⁻⁶ cm/s.

Consider buprenorphine, for which, in data set [1], the “AUEC Ratio mdr1a/b (−/−)/mdr1a/b (+/+)” value is 1.47 ± 0.3; the “Area Under the Effect Curve (AUEC), mdr1a/b (+/+)” value is 1943.74 ± 326.81 % MPE × min; the “Area Under the Effect Curve (AUEC), mdr1a/b (−/−)” value came to 2854.93 ± 325.27 % MPE × min; the “Time of peak %MPE” value was 45 min.

`CCC(=O)C(CC(C)N(C)C)(c1ccccc1)c1ccccc1` (centres unmarked) [Methadone, methadone]: in data set [1], the “%MPE, P-gp knockout mice versus wild-type” value is listed as “significantly higher”; the “Area Under the Effect Curve (AUEC), mdr1a/b (+/+)” value came out at 1501.85 ± 246.45 % MPE × min; the “Area Under the Effect Curve (AUEC), mdr1a/b (−/−)” value was 4099.26 ± 488.58 ^a % MPE × min; the “Time of peak %MPE” value was 15 min. The “Levels in liver and kidney tissues, mdr1a/b (−/−) versus mdr1a/b (+/+) mice” value in data set [2] was “no significant differences”. In the data set on P-gp, this molecule gave a Papp B→A of 19.4 ± 1.01 ×10⁻⁶ cm/s.
